Laboratory results taken from US20230159496A1, “COMPOUNDS AND METHODS FOR MODULATING SPLICING” (REMIX THERAPEUTICS INC., priority 2020, published 2023).
Like-named read-outs stand apart in the source and are kept apart here.

Tests used:
Type in all cases: cell-based
[1] = test system: HTT mRNA; assay: Splicing assay (RT-qPCR) monitoring HTT canonical junction (CJ) and alternative junction (AJ) mRNA isoforms; details: A673 or K562 cells, 24 h treatment, top dose 10 uM
Outline: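 A673 or K562 cells treated 24 h at 37 °C with an 11-point 3-fold dilution (top 10 uM final, DMSO ≤0.25%). Lysates assayed by one-step RT-qPCR for HTT CJ and AJ isoforms, normalized to GAPDH, GUSB (K562) or PPIA (A673).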

[2] = test system: HTT CJ mRNA; assay: Gene panel canonical junction qPCR assay, HTT; details: decrease in CJ mRNA levels, gene panel; read-out: HTT IC50
Outline: (§1)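 A673 or K562 cells were treated for 24 h at 37 °C with an 11-point 3-fold dilution, top dose 10 uM, DMSO ≤0.25%. Canonical junction mRNA in lysates was quantified by one-step RT-qPCR and normalized to GAPDH, GUSB or PPIA.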

[3] = test system: SMN2 CJ mRNA; assay: Gene panel canonical junction qPCR assay, SMN2; details: decrease in CJ mRNA levels, gene panel; read-out: SMN2 IC50
Outline: as §1

[4] = test system: Target C CJ mRNA; assay: Gene panel canonical junction qPCR assay, Target C; details: decrease in CJ mRNA levels, gene panel; read-out: Target C IC50
Outline: as §1

[5] = decrease in CJ mRNA (50% response), read-out: HTT CJ AC50
[6] = increase in AJ mRNA (50% response), read-out: HTT AJ AC50

Row | SMILES | AC50 [1, 5] [µM] | AC50 [1, 6] [µM] | IC50 [2] [µM] | IC50 [3] [µM] | IC50 [4] [µM]
1 | CN1CCN(c2ccc3c(=O)n(-c4ccc5nn(C)cc5c4)cnc3c2)CC1 [Compound 152, 3-(2-methyl-2H-indazol-5-yl)-7-(4-methylpiperazin-1-yl)quinazolin-4(3H)-one] | > 10 | > 10 | > 10 | > 10 | > 10
2 | CN1CCC(Nc2ccc3c(=O)n(-c4ccc5cn(C)nc5c4)cnc3c2)CC1 [Compound 203, 3-(2-methyl-2H-indazol-6-yl)-7-((1-methylpiperidin-4-yl)amino)quinazolin-4(3H)-one] | > 10 | > 10 | > 10 | > 10 | > 10
3 | CN1CCC(c2ccc3c(=O)n(-c4ccc5nn(C)cc5c4)cnc3c2)CC1 [Compound 177, 3-(2-methyl-2H-indazol-5-yl)-7-(1-methylpiperidin-4-yl)quinazolin-4(3H)-one] | > 10 | > 10 | > 10 | > 10 | 1 to 10
4 | Cc1cn2nc(-c3ccc4c(=O)n(C5CCNCC5)ncc4c3)cc2c(C)n1 [Compound 260] | 0.1 to 1 | 0.1 to 1 | 0.1 to 1 | 0.1 to 1 | 1 to 10
5 | Cc1cn2nc(-c3ccc4c(=O)n(C5CCN(C)CC5)cnc4c3)nc2c(C)n1 [Compound 288, 7-{6,8-dimethyl-[1,2,4]triazolo[1,5-a]pyrazin-2-yl}-3-(1-methylpiperidin-4-yl)quinazolin-4-one] | 1 to 10 | 1 to 10 | 1 to 10 | 1 to 10 | 1 to 10
